Columns and labels:
[1] = test system: Parkinson's disease symptoms; assay: Example 1: Parkinson's disease patient, dermal application to forehead and ear conchae
Procedure: A person was diagnosed with the early stages of Parkinson's disease in December of 2014. Their symptoms included tremors in the hands, impaired short term memory, slow and uncontrolled rigid movements while walking and eating, and declining ocular blink function. The patient also had dry eyes with hyper-tearing, burning, and itching.
The patient was also treated with progesterone 1% on the forehead initially once daily beginning in March 2015. […] The progesterone was applied as needed for about a year.
Instead of the prescribed regimen, the patient began dermal application of dronabinol 1.25 mg 2 times daily to three sites: (i) the forehead, (ii) the concha of the left ear, and (iii) the concha of the right ear. Each dose of 1.25 mg was divided equally between the three application sites. This treatment regimen began Friday Jun. 10, 2016 concurrent with the discontinuation of rasagiline.
In February 2017, the patient, who suffers from debilitating moderate spinal stenosis, started taking Azilect (rasagiline) and carbidopa-levodopa to improve their walking and flexibility. […] The patient decided that, together with the prescribed medications, they would switch from dronabinol to topical testosterone gel applied to the forehead and ear conchae to see if this would impact their longstanding low testosterone levels.
In March 2017, topical testosterone gel application was instituted as an adjunct to is the prescribed Azilect and carbidopa-levodopa.
The patient voluntarily stopped topical testosterone for 3 weeks in June 2017. […] At the end of 3 weeks, topical testosterone was re-instituted as an adjunct to the prescribed medications.

[2] = test system: essential tremor; assay: Example 7: essential tremor subject with contact lens discomfort; assay type: in vivo, human
Procedure: A person developed persistent right hand tremors of a kinetic (non-resting) type that has been continuous over the past 6 years. […] This condition had not worsened over time. […] Initially, their doctor thought that these symptoms were stress related and they have been taking 2.5 mg of escitalopram for over 6 years. […] The subject was not on hormone replacement therapy or any other medication.
Concomitantly, the subject suffered from uncomfortable eyes, with a sticky burning sensation and development of blurred vision after about 5-6 hours of contact lens wear. For the past 3 years, the subject was administered 1% progesterone gel (1 mg per day) by dermal application to the forehead once per night. The progesterone gel prolonged comfortable contact lens wear time with sustained visual acuity from 5-6 hours to greater than 15 hours. […] After 2 years of treatment, the benefits of progesterone dermal application persisted for at least 3 days without treatment. There was no effect of the progesterone on their tremor symptoms.
After allowing for washout of progesterone for 3 days, they began forehead application of 0.5-0.75 mg dronabinol once daily at night.
The dronabinol administration regimen was altered by dividing equally the once daily dose of 0.5-0.75 mg dronabinol between the conchae of the left ear, the conchae of the right ear, and the forehead. […] Comfortable contact lens wear, with ease of insertion and removal, and visual acuity extends for 15 hours or more after dronabinol application.
Contact lens comfort wear duration was greater than 15 hours.
In April 2017, the subject, while still being treated with 1% progesterone applied to the forehead, instituted a once-daily low dose topical testosterone applied to the forehead and ear conchae to determine if doing so would produce a beneficial impact on further tremor reduction and in particular essential tremor triggered by caffeine consumption. […] They stopped the treatment to assess whether the tremor would return to pre-testosterone treatment levels. As of August 2017, the subject is without noticeable tremor. The caffeine trigger for tremor onset, which had been recognized throughout all treatments, has not re-appeared since the completion of the 4-week testosterone treatment. The subject continues on low-dose progesterone 1% applied daily to the forehead as the only treatment.

[3] = test system: Parkinson's disease symptoms; assay: Example 2: Parkinson's disease subject, topical progesterone and testosterone; assay type: in vivo, human
Source text: A person was diagnosed with Parkinson's disease in August of 2015. Notable symptoms include both resting and action tremor of the left hand and fingers, forearm, and, to a lesser extent, the right hand and the left leg. Handwriting and computer keyboard work were difficult. They had ocular symptoms associated with the disease, including dry eye disease with moderate to severe burning and grittiness, rapid blink rate, and partial blinking. They used artificial tears constantly in an attempt to alleviate the ocular symptoms. They had not been on any Parkinson's medications. Their Parkinson's tremor followed an “on-off” cycle that correlated with their stress levels, the “on” cycle being times with low stress and few symptoms, and the “off” cycle induced by stress showing an increase in symptoms.
In late February 2017, the subject started applying single daily doses of 0.125% testosterone to the forehead and ear conchae. By the third day of treatment, the subject was tremor-free for periods of 4-6 hours, and the “on” part of the cycle was more frequent. […] The dose of testosterone was increased to 0.2% once daily in early April.
In July 2017, testosterone application was stopped after a taper to evaluate its effects. […] On Aug. 17, 2017, they reported extreme anxiety.
That same afternoon, the subject applied 0.2% testosterone to their forehead and ear conchae, and the next day reported less anxiety and more “on” cycles. By Aug. 20, 2017, they reported having stabilized on the once daily applications with a 60% or greater increase in “on” periods. On August 28, they reported going 9 hours without tremors and leg spasms. On Aug. 30, 2017, the subject was able to walk 8 miles and exercised in between. They described themself as feeling 100%.

[4] = prescribed Azilect (rasagiline) together with carbidopa-levodopa
[5] = once-daily low dose topical testosterone to forehead and ear conchae, 4 weeks, with 1% progesterone to forehead

Compound: C#CCN[C@@H]1CCc2ccccc21 [Azilect, rasagiline]
- motor function [1, 4]: some motor function improvement
- tremor [1, 4]: no more improved than when they were applying dronabinol alone

Compound: CN(C)CCC[C@@]1(c2ccc(F)cc2)OCc2cc(C#N)ccc21 [escitalopram]
- tremor ([2]; 2.5 mg of escitalopram for over 6 years): no resolution of the tremor

Compound: C[C@]12CC[C@H]3[C@@H](CCC4=CC(=O)CC[C@@]43C)[C@@H]1CC[C@@H]2O [testosterone]
- overall functioning after resumption ([1]; testosterone resumed after a three week hiatus): returned immediately to the improved levels
- mental stability, reported by wife ([1]; testosterone to forehead and ears, one-year period up to August 2017): very positive impact on their mental stability
- adverse events ([1]; throughout low dose neural cranial treatment): no adverse events were noted
- cognitive and non-motor symptoms ([1]; topical testosterone gel to forehead and ear conchae, adjunct to Azilect and carbidopa-levodopa, by the third day): improvement in cognitive and non-motor symptoms
- cognitive and emotional function after stopping treatment ([1]; topical testosterone stopped for 3 weeks, within 3 days): significant decline in cognitive and emotional function
- tremor-free days ([3]; 0.125% testosterone once daily, mid-March): two full days tremor-free
- tremor amplitude and resolution ([3]; 0.125% testosterone single daily doses to forehead and ear conchae): the amplitude was less, and the tremors resolved sooner
- tremor-free periods ([3]; 0.125% testosterone single daily doses to forehead and ear conchae, by the third day): 4 to 6 h
- time without tremors and leg spasms ([3]; 0.2% testosterone once daily, August 28): 9 h
- increase in 'on' periods ([3]; 0.2% testosterone once daily, by Aug. 20, 2017): ≥ 60%
- anxiety ([3]; 0.2% testosterone re-applied to forehead and ear conchae, next day): less anxiety
- symptom trend after stopping treatment ([3]; 6 weeks of testosterone abstinence): downward trend in symptoms to pre-treatment levels
- blood total and free testosterone ([3]; July 2017, after topical testosterone 0.125-0.2% once daily): mildly elevated total and free testosterone
- tremors after stopping treatment ([3]; day 3 of testosterone abstinence): tremors were more frequent
- stress management, mood, libido ([3]; testosterone 0.2% once daily, through April 2017): improved stress management, elevated mood with increase in libido and vaginal lubrication
- disease progression, assessed by neurologists ([3]; testosterone administration, no prescribed Parkinson's medications): no disease progression
- negative side effects ([3]; topical testosterone, February to July 2017): No negative side effects
- caffeine trigger of essential tremor [2, 5]: near complete resolution of the caffeine trigger
- reduction in tremor amplitude and frequency over the original baseline [2, 5]: ≤ 90%
